From patent publication US12071416B2, “Prodrugs of 4-( (1R, 3S)-6-chloro-3-phenyl-2, 3-dihydro-1H-inden-1-yl)-1,2, 2-trimethylpiperazine and 4-( (1R, 3S)-6-chloro-3-(phenyl-D5)-2, 3-dihydro-1H-inden-1-yl)-2, 2-dimethyl-1 (methyl-D3) piperazine” (H. Lundbeck A/S, priority 2018, dated 2024)
Read-outs that look alike come from different tables or passages of the source.

Experiment: Plasma stability assay
Format: in vitro ADME, human
Experimental: Frozen human plasma (stored at −80° C.) was thawed in a water bath followed by centrifugation at 3200×g for 5 min to remove debris. The pH value of the supernatant was then measured and adjusted to 7.4±0.1 by adding 1% phosphoric acid or 1 N sodium hydroxide.
For each test compound, 2 microL of dosing solution (50 microM for test compounds and 100 microM for positive control; propantheline bromide) were spiked into 98 microL of blank plasma to achieve a final concentration of 1 microM test compound and 2 microM positive control.
The test compounds and positive control were incubated in duplicate with human plasma (final DMSO concentration <1%) in a water bath at 37° C. at six different time points (0, 0.5, 1, 2, 4 and 6 hr). At each corresponding time point the incubations were terminated by adding appropriate volume of quenching solution to stop the reaction.
Afterwards, the plasma samples were briefly vortexed and subsequently centrifuged at 3200×g for 20 min. The supernatant was transferred into a 96-well plate and diluted with 200 microL of ultrapure water in the ratio of 1:2 prior to LC-MS/MS analysis. The peak area ratios (PAR) of analyte/internal standard was used to semi-quantitatively determine the concentration of test compounds and control compound. The percentage of test compound remaining at the individual time points relative to the 0 minute sample was reported.
In the determination of in vitro elimination constant, ke, of the parent drug and controls, the analyte/internal standard peak area ratios were converted to percentage remaining with the following equation: […]
The percentage formation of metabolite was calculated by the analyte/internal standard peak area ratios versus T0 (absolute) of metabolite drug and converted to percentage.
The half-life (T1/2) of parent drug and control compounds were calculated from a log linear plot of analyte/internal standard peak area ratios versus time (T1/2=0.693/ke).
Compounds 1a2, 1b2, 2a2, and 2b2 were incubated in human plasma as described above and half-lives of 0.5-1.5 h were determined with the formation of 15-35% of 4-((1R,3S)-6-chloro-3-phenyl-2,3-dihydro-1H-inden-1-yl)-1,2,2-trimethylpiperazine and 4-((1R,3S)-6-chloro-3-(phenyl-d5)-2,3-dihydro-1H-inden-1-yl)-2,2-dimethyl-1-(methyl-d3)piperazine, respectively.

[1] = human plasma, pH 7.4, 37° C., 1 microM test compound, 0-6 hr, LC-MS/MS, read-out: half-life (T1/2) in human plasma

| SMILES | half-life at 1 microM [1] [h] | half-life at 1 microM (human, plasma, pH 7.4) [h] |
| --- | --- | --- |
| CC(C)(C)C(=O)OC[N@+]1(C)CCN([C@@H]2C[C@@H](c3ccccc3)c3ccc(Cl)cc32)CC1(C)C.[Cl-] (single isomer, unassigned) [Compound 1a2] | 0.5 to 1.5 | – |
| CC(C)(C)C(=O)OC[N@@+]1(C)CCN([C@@H]2C[C@@H](c3ccccc3)c3ccc(Cl)cc32)CC1(C)C.[Cl-] (single isomer, unassigned) [Compound 1b2] | – | 0.5 to 1.5 |
| [2H]c1c([2H])c([2H])c([C@@H]2C[C@@H](N3CC[N@+](COC(=O)C(C)(C)C)(C([2H])([2H])[2H])C(C)(C)C3)c3cc(Cl)ccc32)c([2H])c1[2H].[Cl-] (single isomer, unassigned) [Compound 2a2] | 0.5 to 1.5 | – |
| [2H]c1c([2H])c([2H])c([C@@H]2C[C@@H](N3CC[N@@+](COC(=O)C(C)(C)C)(C([2H])([2H])[2H])C(C)(C)C3)c3cc(Cl)ccc32)c([2H])c1[2H].[Cl-] (single isomer, unassigned) [Compound 2b2] | – | 0.5 to 1.5 |
